Earlier results as cited in US20160113981A1, “TOPICAL COMPOSITION” (priority 2014, published 2016).

Columns and labels:
[1] = equimolar dose of indomethacin
[2] = after topical application of lavender oil

Compound | anti-inflammatory effect compared with indomethacin [1] | time of peak in the blood [2] [min]
CC1=CC[C@@]2(C)[C@H]([C@@H]1C)[C@H]1CC[C@@H]3[C@@]4(C)CC[C@H](O)C(C)(C)[C@@H]4CC[C@@]3(C)[C@]1(C)C[C@@H]2O [faradiol] | same effects as an equimolar dose of indomethacin | –
C=CC(C)(O)CCC=C(C)C (stereo not drawn) [linalool] | – | 19
C=CC(C)(CCC=C(C)C)OC(C)=O (stereo not drawn) [linalyl acetate] | – | 19
